# Assay results taken from paper PMC8938452.
# Assay: three-component macrocyclisation: bis(chloroacetamide) (1 eq) + diamine (1.2 eq) + CS2 (8 eq); in situ dithiocarbamate formation then S-alkylation (C-S bond, Cl displacement) at both ends, metal-free, no added base, 15 min
# Settings: the molecule shown is the open-chain precursor, PEG-200, 400.0 mM, 25.0 °C, 0.25 h
smiles,measurement,setting,value
O=C(CCl)NCCCNC(=O)CSC(=S)NCCCCCCNC(=S)[S-] [5],"ring closure, isolated yield",21-membered ring,74.7%
CN(CCN(C)C(=O)CSC(=S)NCCCNC(=S)[S-])C(=O)CCl [3],"ring closure, isolated yield",17-membered ring,78.5%
O=C(CCl)NCCCNC(=O)CSC(=S)N(CCN(Cc1ccccc1)C(=S)[S-])Cc1ccccc1 [6],"ring closure, isolated yield",17-membered ring,69.4%
CN(CCN(C)C(=O)CSC(=S)N(C)CCN(C)C(=S)[S-])C(=O)CCl [2],"ring closure, isolated yield",16-membered ring,24.1%
O=C(CCl)NCCCNC(=O)CSC(=S)NCCCNC(=S)[S-] [4],"ring closure, isolated yield",18-membered ring,85.3%
CN(CCN(C)C(=S)SCC(=O)NCCN(C(=O)CCl)c1cccc2ccccc12)C(=S)[S-] [7],"ring closure, isolated yield",16-membered ring,84.6%
CCCCN(CCN(CCCC)C(=S)SCC(=O)N(C)CCN(C)C(=O)CCl)C(=S)[S-] [1],"ring closure, isolated yield",16-membered ring,61.3%
